In ChEMBL document CHEMBL4373740, “Synthesis and biological evaluation of new MET inhibitors with 1,6-naphthyridinone scaffold” (Eur J Med Chem, 2020):

Legend:
[1] = molecular target: Vascular endothelial growth factor receptor 2 (Homo sapiens, UniProt P35968); experiment: Inhibition of purified recombinant VEGFR2 kinase domain (unknown origin) using biotin as substrate preincubated for 5 mins followed by substrate addition and measured after 30 to 60 mins in presence of ATP by HTRF assay
Homo sapiens = species: Homo sapiens; experiment: Selectivity index, ratio of IC50 for purified recombinant VEGFR2 kinase domain (unknown origin) to IC50 for purified recombinant MET kinase domain (unknown origin)
[2] = molecular target: Tyrosine-protein kinase receptor UFO (Homo sapiens, UniProt P30530); experiment: (§1) Inhibition of recombinant full length human N-terminal GST-tagged AXL (473 to end residues) expressed in baculovirus infected Sf21 insect cells using biotin as substrate preincubated for 5 mins followed by substrate addition and measured after 30 to 60 mins in presence of ATP by HTRF assay
[3] = molecular target: Vascular endothelial growth factor receptor 3 (Homo sapiens, UniProt P35916); experiment: Inhibition of recombinant human GST-tagged FLT4 catalytic domain (800 to 1297 residues) expressed in baculovirus expression system using biotin as substrate preincubated for 5 mins followed by substrate addition and measured after 30 to 60 mins in presence of ATP by HTRF assay
[4] = molecular target: Tyrosine-protein kinase Mer (Homo sapiens, UniProt Q12866); experiment: Inhibition of recombinant human GST-tagged cMER (578 to 872 residues) expressed in baculovirus infected Sf21 insect cells using biotin as substrate preincubated for 5 mins followed by substrate addition and measured after 30 to 60 mins in presence of ATP by HTRF assay
[5] = molecular target: BDNF/NT-3 growth factors receptor (Homo sapiens, UniProt Q16620); experiment: Inhibition of recombinant human His-tagged TRKB catalytic domain (526 to 838 residues) expressed in baculovirus expression system using biotin as substrate preincubated for 5 mins followed by substrate addition and measured after 30 to 60 mins in presence of ATP by HTRF assay
[6] = Antiproliferative activity against human NIH-H460 cells at 10 uM incubated for 72 hrs by MTT assay relative to control; format: functional; conditions: NIH-H460, 72 h
[7] = Tmax in Sprague-Dawley rat at 5.0 mg/kg, ig measured for 15 min to 72 hrs by LC-MS/MS analysis; format: ADME, organism-based; conditions: in vivo, po
[8] = Clearance in Sprague-Dawley rat at 1.0 mg/kg, iv measured for 5 min to 72 hrs by LC-MS/MS analysis; format: ADME, organism-based; conditions: in vivo
[9] = molecular target: Receptor-type tyrosine-protein kinase FLT3 (Homo sapiens) (UniProt P36888); experiment: (§2) Inhibition of recombinant full length human His-tagged FLT3 expressed in baculovirus expression system at 1 uM using biotin as substrate preincubated for 5 mins followed by substrate addition and measured after 30 to 60 mins in presence of ATP by HTRF assay relative to control
[10] = molecular target: Tyrosine-protein kinase receptor TYRO3 (Homo sapiens) (UniProt Q06418); experiment: as §2, with “recombinant” for “recombinant full length”, “GST-tagged RSE catalytic domain (451 to 890 residues)” for “His-tagged FLT3”
Angiopoietin-1 receptor = Angiopoietin-1 receptor (Homo sapiens, UniProt Q02763); experiment: (§3) Inhibition of recombinant human GST-tagged TEK (817 to 1101 residues) expressed in baculovirus expression system at 1 uM using biotin as substrate preincubated for 5 mins followed by substrate addition and measured after 30 to 60 mins in presence of ATP by HTRF assay relative to control
[11] = molecular target: Tyrosine-protein kinase ABL1 (Homo sapiens) (UniProt P00519); experiment: Inhibition of recombinant full length human His-tagged ABL1 expressed in baculovirus expression system at 1 uM using biotin as substrate preincubated for 5 mins followed by substrate addition and measured after 30 to 60 mins in presence of ATP by HTRF assay relative to control
[12] = molecular target: Serine/threonine-protein kinase B-raf (Homo sapiens) (UniProt P15056); experiment: Inhibition of recombinant full length human GST-tagged BRAF expressed in baculovirus expression system at 1 uM using biotin as substrate preincubated for 5 mins followed by substrate addition and measured after 30 to 60 mins in presence of ATP by HTRF assay relative to control
[13] = molecular target: CDK2/Cyclin A2 (Homo sapiens) (UniProt P24941+P20248); experiment: Inhibition of recombinant full length human His-tagged CDK2/Cyclin A expressed in baculovirus expression system at 1 uM using biotin as substrate preincubated for 5 mins followed by substrate addition and measured after 30 to 60 mins in presence of ATP by HTRF assay relative to control
[14] = molecular target: Macrophage colony-stimulating factor 1 receptor (Homo sapiens) (UniProt P07333); experiment: Inhibition of recombinant full length human His-tagged CSF1R expressed in baculovirus expression system at 1 uM using biotin as substrate preincubated for 5 mins followed by substrate addition and measured after 30 to 60 mins in presence of ATP by HTRF assay relative to control
[15] = molecular target: Vascular endothelial growth factor receptor 1 (Homo sapiens) (UniProt P17948); experiment: as §3, with “FLT1 catalytic domain (781” for “TEK (817”, “1338” for “1101”
[16] = molecular target: Glycogen synthase kinase-3 beta (Homo sapiens) (UniProt P49841); experiment: Inhibition of GSK3beta (unknown origin) at 1 uM using biotin as substrate preincubated for 5 mins followed by substrate addition and measured after 30 to 60 mins in presence of ATP by HTRF assay relative to control
[17] = molecular target: Mast/stem cell growth factor receptor Kit (Homo sapiens) (UniProt P10721); experiment: as §1, with “recombinant” for “recombinant full length”, “c-Kit (544” for “AXL (473”, “cells at 1 uM” for “cells”, “assay relative to control” for “assay”
[18] = molecular target: Mitogen-activated protein kinase 14 (Homo sapiens) (UniProt Q16539); experiment: Inhibition of recombinant full length human GST-tagged MAPK14 expressed in Escherichia coli at 1 uM using biotin as substrate preincubated for 5 mins followed by substrate addition and measured after 30 to 60 mins in presence of ATP by HTRF assay relative to control
[19] = molecular target: Mitogen-activated protein kinase 3 (Homo sapiens) (UniProt P27361); experiment: Inhibition of recombinant full length human GST-tagged MAPK3 expressed in Escherichia coli at 1 uM using biotin as substrate preincubated for 5 mins followed by substrate addition and measured after 30 to 60 mins in presence of ATP by HTRF assay relative to control
[20] = molecular target: Serine/threonine-protein kinase pim-1 (Homo sapiens) (UniProt P11309); experiment: Inhibition of recombinant full length human His-tagged PIM1 expressed in baculovirus expression system at 1 uM using biotin as substrate preincubated for 5 mins followed by substrate addition and measured after 30 to 60 mins in presence of ATP by HTRF assay relative to control
[21] = molecular target: cAMP-dependent protein kinase catalytic subunit alpha (Homo sapiens) (UniProt P17612); experiment: Inhibition of recombinant full length human His-tagged PRKACA expressed in Escherichia coli at 1 uM using biotin as substrate preincubated for 5 mins followed by substrate addition and measured after 30 to 60 mins in presence of ATP by HTRF assay relative to control

Chain of Tyrosine-protein kinase receptor TYRO3 (Homo sapiens) (Q06418 whole entry, the tested form may be a part): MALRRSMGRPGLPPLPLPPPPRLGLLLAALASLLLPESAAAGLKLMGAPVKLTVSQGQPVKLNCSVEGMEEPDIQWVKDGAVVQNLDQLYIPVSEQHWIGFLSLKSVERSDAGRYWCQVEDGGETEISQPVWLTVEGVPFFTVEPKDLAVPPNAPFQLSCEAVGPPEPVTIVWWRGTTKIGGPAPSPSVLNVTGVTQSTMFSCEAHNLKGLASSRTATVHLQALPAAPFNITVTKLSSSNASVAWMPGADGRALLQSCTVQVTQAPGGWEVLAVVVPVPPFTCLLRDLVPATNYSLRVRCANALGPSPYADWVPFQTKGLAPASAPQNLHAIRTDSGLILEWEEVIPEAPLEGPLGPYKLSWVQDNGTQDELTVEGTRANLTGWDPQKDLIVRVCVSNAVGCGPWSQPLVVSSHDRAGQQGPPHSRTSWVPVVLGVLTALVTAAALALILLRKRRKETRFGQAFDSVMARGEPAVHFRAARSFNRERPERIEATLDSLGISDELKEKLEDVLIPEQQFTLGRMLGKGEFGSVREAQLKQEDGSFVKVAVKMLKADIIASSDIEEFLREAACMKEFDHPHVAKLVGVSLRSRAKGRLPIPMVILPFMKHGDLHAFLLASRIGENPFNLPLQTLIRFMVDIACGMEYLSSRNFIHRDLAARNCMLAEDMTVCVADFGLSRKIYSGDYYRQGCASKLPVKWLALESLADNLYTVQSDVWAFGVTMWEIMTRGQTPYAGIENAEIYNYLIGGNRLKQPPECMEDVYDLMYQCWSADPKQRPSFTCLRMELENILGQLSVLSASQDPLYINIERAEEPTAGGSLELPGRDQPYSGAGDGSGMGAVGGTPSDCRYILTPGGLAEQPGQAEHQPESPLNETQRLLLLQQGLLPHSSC
Chain of Serine/threonine-protein kinase pim-1 (Homo sapiens) (P11309 whole entry, looked up): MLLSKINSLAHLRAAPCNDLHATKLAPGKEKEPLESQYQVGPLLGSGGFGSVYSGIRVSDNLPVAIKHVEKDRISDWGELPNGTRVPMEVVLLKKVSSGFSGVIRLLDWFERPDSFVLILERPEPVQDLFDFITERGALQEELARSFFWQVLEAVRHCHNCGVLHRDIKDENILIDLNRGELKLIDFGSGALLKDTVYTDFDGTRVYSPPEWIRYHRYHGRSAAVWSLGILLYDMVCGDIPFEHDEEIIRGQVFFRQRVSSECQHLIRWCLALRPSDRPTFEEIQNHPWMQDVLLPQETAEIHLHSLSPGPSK
Chain of Mitogen-activated protein kinase 14 (Homo sapiens) (Q16539 whole entry): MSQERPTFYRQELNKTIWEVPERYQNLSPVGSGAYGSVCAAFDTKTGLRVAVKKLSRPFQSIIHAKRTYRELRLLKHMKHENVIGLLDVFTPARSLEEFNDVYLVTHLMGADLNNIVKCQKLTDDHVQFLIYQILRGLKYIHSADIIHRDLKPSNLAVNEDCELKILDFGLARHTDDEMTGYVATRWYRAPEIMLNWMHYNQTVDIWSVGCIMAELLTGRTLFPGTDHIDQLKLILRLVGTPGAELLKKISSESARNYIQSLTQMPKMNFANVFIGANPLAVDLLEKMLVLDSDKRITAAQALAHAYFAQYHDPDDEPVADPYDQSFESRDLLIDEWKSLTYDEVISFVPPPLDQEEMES
Chain of Vascular endothelial growth factor receptor 1 (Homo sapiens) (P17948 whole entry, the tested form may be a part): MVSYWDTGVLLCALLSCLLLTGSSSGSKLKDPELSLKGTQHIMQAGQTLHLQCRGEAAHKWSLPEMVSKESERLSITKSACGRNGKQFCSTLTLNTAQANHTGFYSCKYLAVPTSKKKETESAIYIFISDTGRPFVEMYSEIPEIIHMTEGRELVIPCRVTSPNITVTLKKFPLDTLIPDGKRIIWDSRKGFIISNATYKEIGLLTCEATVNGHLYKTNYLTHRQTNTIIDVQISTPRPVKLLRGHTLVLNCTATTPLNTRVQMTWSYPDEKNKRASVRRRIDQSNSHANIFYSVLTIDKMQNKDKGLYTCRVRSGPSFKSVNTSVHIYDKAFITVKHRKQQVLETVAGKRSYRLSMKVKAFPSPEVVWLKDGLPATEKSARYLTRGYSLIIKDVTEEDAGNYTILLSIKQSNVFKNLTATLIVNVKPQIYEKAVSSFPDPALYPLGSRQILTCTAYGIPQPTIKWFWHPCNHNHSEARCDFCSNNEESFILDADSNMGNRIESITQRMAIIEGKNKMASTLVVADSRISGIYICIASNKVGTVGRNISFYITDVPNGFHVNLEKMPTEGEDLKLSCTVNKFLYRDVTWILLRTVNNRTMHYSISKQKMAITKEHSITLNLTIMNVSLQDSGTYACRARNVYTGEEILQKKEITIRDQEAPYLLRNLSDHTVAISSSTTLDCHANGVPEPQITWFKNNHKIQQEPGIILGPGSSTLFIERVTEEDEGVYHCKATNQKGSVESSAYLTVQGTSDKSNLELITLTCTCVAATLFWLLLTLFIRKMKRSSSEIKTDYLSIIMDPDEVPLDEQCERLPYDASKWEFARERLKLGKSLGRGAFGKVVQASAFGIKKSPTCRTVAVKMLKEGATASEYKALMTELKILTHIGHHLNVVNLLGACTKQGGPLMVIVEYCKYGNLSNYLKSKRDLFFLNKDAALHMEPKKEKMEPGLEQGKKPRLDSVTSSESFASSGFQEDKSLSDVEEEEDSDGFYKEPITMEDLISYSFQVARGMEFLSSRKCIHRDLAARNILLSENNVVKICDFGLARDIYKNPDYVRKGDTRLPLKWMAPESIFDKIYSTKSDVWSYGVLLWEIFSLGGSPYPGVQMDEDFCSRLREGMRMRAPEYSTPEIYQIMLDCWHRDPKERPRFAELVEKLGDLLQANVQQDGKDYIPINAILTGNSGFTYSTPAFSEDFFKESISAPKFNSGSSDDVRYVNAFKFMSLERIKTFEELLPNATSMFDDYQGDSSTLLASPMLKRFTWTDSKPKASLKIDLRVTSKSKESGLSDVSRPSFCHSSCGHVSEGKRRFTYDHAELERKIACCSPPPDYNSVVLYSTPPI
Chain of Serine/threonine-protein kinase B-raf (Homo sapiens) (P15056 whole entry): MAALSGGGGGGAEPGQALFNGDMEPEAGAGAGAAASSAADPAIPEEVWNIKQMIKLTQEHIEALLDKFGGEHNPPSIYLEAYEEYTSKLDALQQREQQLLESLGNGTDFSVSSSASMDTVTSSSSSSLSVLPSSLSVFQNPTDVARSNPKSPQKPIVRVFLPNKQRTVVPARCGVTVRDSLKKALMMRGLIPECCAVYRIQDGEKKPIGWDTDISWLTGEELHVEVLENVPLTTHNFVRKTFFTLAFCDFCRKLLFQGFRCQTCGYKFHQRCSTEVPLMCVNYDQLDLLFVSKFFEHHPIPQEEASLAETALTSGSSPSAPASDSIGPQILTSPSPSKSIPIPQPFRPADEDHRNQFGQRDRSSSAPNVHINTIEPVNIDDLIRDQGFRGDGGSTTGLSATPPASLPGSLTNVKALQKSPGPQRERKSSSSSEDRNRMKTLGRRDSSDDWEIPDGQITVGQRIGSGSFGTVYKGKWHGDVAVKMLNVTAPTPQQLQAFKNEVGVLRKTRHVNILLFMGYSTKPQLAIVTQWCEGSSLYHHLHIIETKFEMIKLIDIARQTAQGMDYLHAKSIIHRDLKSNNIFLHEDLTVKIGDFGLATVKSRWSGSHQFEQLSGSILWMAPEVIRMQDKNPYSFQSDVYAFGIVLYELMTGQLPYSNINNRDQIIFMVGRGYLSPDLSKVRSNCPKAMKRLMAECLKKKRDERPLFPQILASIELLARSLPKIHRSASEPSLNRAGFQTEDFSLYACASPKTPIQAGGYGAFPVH
Chain of Mast/stem cell growth factor receptor Kit (Homo sapiens) (P10721 whole entry): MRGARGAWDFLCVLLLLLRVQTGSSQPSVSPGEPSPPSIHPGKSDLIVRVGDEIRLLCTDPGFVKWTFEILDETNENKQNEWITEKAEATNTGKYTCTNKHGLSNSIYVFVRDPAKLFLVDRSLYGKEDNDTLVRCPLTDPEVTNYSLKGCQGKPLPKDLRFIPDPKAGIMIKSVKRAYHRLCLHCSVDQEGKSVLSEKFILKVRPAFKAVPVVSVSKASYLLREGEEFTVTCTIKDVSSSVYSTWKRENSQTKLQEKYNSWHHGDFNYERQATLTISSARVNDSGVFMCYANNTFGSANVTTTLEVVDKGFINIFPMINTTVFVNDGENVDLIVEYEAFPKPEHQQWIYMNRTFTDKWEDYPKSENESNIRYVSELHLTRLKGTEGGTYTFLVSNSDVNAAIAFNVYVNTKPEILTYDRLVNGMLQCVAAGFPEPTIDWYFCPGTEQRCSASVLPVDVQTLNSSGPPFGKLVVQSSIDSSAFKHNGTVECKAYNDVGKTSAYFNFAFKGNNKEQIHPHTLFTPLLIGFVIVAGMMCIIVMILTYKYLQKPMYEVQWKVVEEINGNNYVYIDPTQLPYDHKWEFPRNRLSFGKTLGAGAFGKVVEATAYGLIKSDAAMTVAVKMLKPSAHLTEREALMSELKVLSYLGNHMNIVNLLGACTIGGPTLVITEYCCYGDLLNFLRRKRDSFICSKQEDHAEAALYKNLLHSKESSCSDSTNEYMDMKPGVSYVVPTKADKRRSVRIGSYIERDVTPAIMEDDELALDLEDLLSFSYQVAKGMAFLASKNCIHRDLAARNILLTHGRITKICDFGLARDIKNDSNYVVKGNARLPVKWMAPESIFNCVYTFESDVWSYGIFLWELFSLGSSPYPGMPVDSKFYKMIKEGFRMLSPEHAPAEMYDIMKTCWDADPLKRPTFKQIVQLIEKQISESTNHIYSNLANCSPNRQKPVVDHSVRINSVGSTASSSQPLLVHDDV
Chain of Glycogen synthase kinase-3 beta (Homo sapiens) (P49841 whole entry, looked up): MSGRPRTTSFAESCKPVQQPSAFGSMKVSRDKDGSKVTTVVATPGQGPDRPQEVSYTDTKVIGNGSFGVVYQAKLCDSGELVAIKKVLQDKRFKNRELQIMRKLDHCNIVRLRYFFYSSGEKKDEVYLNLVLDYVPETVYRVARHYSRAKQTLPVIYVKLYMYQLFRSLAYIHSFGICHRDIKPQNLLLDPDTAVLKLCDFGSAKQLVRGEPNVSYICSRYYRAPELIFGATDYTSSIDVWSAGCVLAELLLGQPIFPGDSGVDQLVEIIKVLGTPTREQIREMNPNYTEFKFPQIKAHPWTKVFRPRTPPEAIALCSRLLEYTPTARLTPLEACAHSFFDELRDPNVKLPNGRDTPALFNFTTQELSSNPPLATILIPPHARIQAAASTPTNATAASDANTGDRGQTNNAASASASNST

Cn1cc(-c2ccc(F)cc2)c(=O)c2c(Nc3ccc(Oc4ccnc(NC(=O)C5CC5)c4)c(F)c3)nccc21
IC50 [1]: 22.9 µM | Ratio IC50 (Homo sapiens): 3230 | IC50 [2]: 0.0082 µM | IC50 [3]: 0.591 µM | IC50 [4]: 0.0042 µM | IC50 [5]: 0.0588 µM | inhibition at 10 µM [6]: 15.6% | Tmax [7]: 8.7 h | clearance [8]: 0.01 L/h/kg | inhibition [9]: > 80% | inhibition [10]: > 80% | inhibition (Angiopoietin-1 receptor): 50 to 79% | inhibition [11]: < 50% | inhibition [12]: < 50% | inhibition [13]: < 50% | inhibition [14]: < 50% | inhibition [15]: < 50% | inhibition [16]: < 50% | inhibition [17]: < 50% | inhibition [18]: < 50% | inhibition [19]: < 50% | inhibition [20]: < 50% | inhibition [21]: < 50%
